In patent publication US20160193316A1 (priority 1994, published 2016):
Like-named read-outs stand apart in the source and are kept apart here. No end group written: not given here.

Assays:
HLA-A*1101 = HLA-A*1101 (Homo sapiens, UniProt P04439, A114D/D185E/E176A/F33Y/L180Q/S129P/T187R); assay: HLA class I peptide binding assay
HLA-A*3101 = HLA-A*3101 (Homo sapiens, UniProt P04439, A270S/D185E/E176V/E277Q/F33T/G231S/G80R/H175R/I121M/I218V/I322F/K168Q/L300P/L318F/M331R/P217A/Q94H/R138Q/T323A/T345S/T97I/V358M); assay: HLA class I peptide binding assay
HLA-A*3301 = HLA-A*3301 (Homo sapiens, UniProt P04439, A270S/D185E/E176V/E277Q/E87N/F33T/G231S/H175R/I121M/I218V/I322F/K168Q/K210R/L300P/L318F/M331R/P217A/Q86R/Q94H/R138Q/T323A/T345S/T97I/V358M/Y195H); assay: HLA class I peptide binding assay
[1] = system: HLA-A3-supertype molecules (A3, A11, A*3101, A*3301, A*6801); format: binding, human
HLA-A*0101 = HLA-A*0101 (Homo sapiens, UniProt P04439, A114D/A174V/A182V/D101N/D185E/E176A/E190D/L180R/Q94H/R68K/S129P/T187R/V100A/V91M/W191G); format: binding
HLA-A*2402 = HLA-A*2402 (Homo sapiens, UniProt P04439, D101N/D140Y/D185E/E176V/E190D/F33S/G103R/G107R/I119L/I121M/I306V/K335N/L105A/L180Q/L300P/N151K/N90K/Q86E/Q94H/R106L/R138H/R89G/T104I/T345S/V100E/W191G/Y123F); assay: HLA class I peptide binding assay; details: unit not given
DRB1*0101 (DR1) = target: T1, DRB1*0101 (DR1) (Homo sapiens, UniProt P01903+P01911, A100R/D57E/F55L/F60I/F76Y/I96L/L162R/M171V/P40L/Q125E/R42F/V115G/Y59C); assay: HLA class II peptide binding assay; details: Table XIXb, Malaria Super Motif Peptides With Binding Data; DR1
T1 construct: endogenous in cells; host or cells: LG2

DRB1*0301 (DR3) = target: T2, DRB1*0301 (DR3) (Homo sapiens, UniProt P01903+P01911, A100K/A102G/A103R/A169T/F55Y/I96L/K41T/L162R/M171V/P40S/Q125H/Q178H/Q39Y/R42S/S66N/T106N/T262R/W38E/Y61H); assay: HLA class II peptide binding assay (pH 4.5)
T2 construct: endogenous in cells; host or cells: MAT

DRB1*0401 (DR4w4) = target: T3, DRB1*0401 (DR4w4) (Homo sapiens, UniProt P01903+P01911, A100K/A169T/F76Y/I96L/K127E/L162R/M171V/N62H/P40V/Q125Y/R42H/S133A/S149N/S66Y/V115G/V209L/W38E); assay: HLA class II peptide binding assay; details: Table XIXb; DR4w4
T3 construct: endogenous in cells; host or cells: Preiss

DRB1*0405 (DR4w15) = target: T4, DRB1*0405 (DR4w15) (Homo sapiens, UniProt P01903+P01911, A100R/A169T/D86S/F76Y/I96L/K127E/L162R/M171V/N62H/P40V/Q125Y/R42H/S133A/S149N/S66Y/V115G/V209L/W38E); assay: HLA class II peptide binding assay; details: Table XIXb; DR4w15
T4 construct: endogenous in cells; host or cells: KT3

DRB1*0701 (DR7) = target: T5, DRB1*0701 (DR7) (Homo sapiens, UniProt P01903+P01911, A100R/A102G/A103Q/D57E/D86V/E43K/F76Y/K127E/L162R/M171V/P40G/Q125H/Q99D/R33Q/R42Y/R54Q/S133A/S66F/T210M/V115G/Y107V/Y59L/Y89S); assay: biochemical; format: binding
T5 construct: endogenous in cells; host or cells: Pitout

DRB1*0802 (DR8w2) = target: T6, DRB1*0802 (DR8w2) (Homo sapiens, UniProt P01903+P01911, A100R/A103L/A169T/F76Y/H45Y/I96F/K41T/L162R/M171V/P40S/Q125H/Q178H/Q39Y/Q99D/R218S/R42G/S66Y/V115G/W38E); assay: biochemical; format: binding
T6 construct: endogenous in cells; host or cells: OLL

DRB1*0901 (DR9) = target: T7, DRB1*0901 (DR9) (Homo sapiens, UniProt P01903+P01911, A100R/A103E/D57H/D86V/F55Y/F60I/F76Y/I96F/K127E/L162R/M171V/P40D/Q125H/Q99R/R33Q/R42F/S133A/S66N/T210M/V115G/W38K/Y107V/Y59G/Y89S); assay: biochemical; format: binding
T7 construct: endogenous in cells; host or cells: HID

DRB1*1101 (DR5w11) = target: T8, DRB1*1101 (DR5w11) (Homo sapiens, UniProt P01903+P01911, A100R/A169T/A87E/I96F/K41T/L162R/M171V/P40S/Q125H/Q178H/Q39Y/Q99D/R42S/S66Y/T262R/V115G/W38E); assay: biochemical; format: binding
T8 construct: endogenous in cells; host or cells: Sweig

DRB1*1201 (DR5w12) = target: T9, DRB1*1201 (DR5w12) (Homo sapiens, UniProt P01903+P01911, A100R/A169T/D57E/D86V/F55L/H45Y/K41T/L162R/M171V/P40S/Q125H/Q178H/Q39Y/Q99D/R42G/S66L/T262R/V114A/V67L/W38E/Y59H/Y61H/Y89S); assay: HLA class II peptide binding assay; details: Table XIXb; DR5w12
T9 construct: endogenous in cells; host or cells: Herluf

DRB1*1302 (DR6w19) = target: T10, DRB1*1302 (DR6w19) (Homo sapiens, UniProt P01903+P01911, A100E/A169T/K41T/L162R/M171V/P40S/Q125H/Q178H/Q39Y/Q99D/R42S/S66N/T262R/V115G/W38E/Y61H); assay: HLA class II peptide binding assay; details: Table XIXb; DR6w19
T10 construct: endogenous in cells; host or cells: H0301

DRB1*1501 (DR2w2β1) = target: T11, DRB1*1501 (DR2w2β1) (Homo sapiens, UniProt P01903+P01911); assay: HLA class II peptide binding assay; details: Table XIXb; DR2w2β1
T11 construct: expressed in transfected cells; host or cells: L466.1 (fibroblasts)

DRB5*0101 (DR2w2β2) = target: T12, DRB5*0101 (DR2w2β2) (Homo sapiens, UniProt P01903+Q30154); format: binding
T12 construct: expressed in transfected cells; host or cells: L416.3 (fibroblasts) or GM3107

HLA-B*0702 = target: T13, HLA-B*0702 (Homo sapiens, UniProt P01889); assay: HLA class I peptide binding assay; details: Malaria B07 super motif peptides; binding value, no unit
T13 construct: endogenous in cells; host or cells: GM3107

HLA-A*0301 = target: T14, HLA-A*0301 (Homo sapiens, UniProt P04439); assay: HLA class I peptide binding assay; details: Malaria A3 motif peptides, Table XVI; binding value to HLA-A*0301, unit not given
T14 construct: endogenous in cells; host or cells: GM3107

T helper lymphocytes = details: regardless of HLA type, WO 95/07707; cited from earlier work

FILVNLLIFH [Peptide 1167.46] showed an IC50 (HLA-A*1101) of 1330 nM, an IC50 (HLA-A*3101) of 1960 nM and an IC50 (HLA-A*3301) of 397 nM. For the same substance, the Alleles bound ([1]; A3-supermotif CTL epitopes, five A3-supertype alleles (Table XXVII)) was 2, the Alleles bound ([1]; A3-supertype peptides tested for binding to A*03, A*11, A*31011, A*3301, A*6801) was 2 and the Alleles bound ([1]; A3-supertype, tested on A*03, A*11, A*31011, A*3301, A*6801, unfixed parent peptide) was 2.

With FQDEENIGIY the “A*0101 (binding information)” value (HLA-A*0101) was 1.1000.

For FYFILVNLL, the HLA-A24 binding value (HLA-A*2402; HLA class I binding value as printed in column headed A*201 of Table X) was 7.5000, the “A*2401 (binding information, Malaria A24 motif peptides)” value (HLA-A*2402; HLA-A*2401 binding value as printed) was 7.5000 and the DR1 binding data (DRB1*0101 (DR1)) was 0.0029. For the same substance, the DR3 binding data (DRB1*0301 (DR3); Table XIXb, DR3) was -0.0008, the DR4w4 binding data (DRB1*0401 (DR4w4)) was 0.0210 and the DR4w15 binding data (DRB1*0405 (DR4w15)) was -0.0009. The DR7 binding data (DRB1*0701 (DR7)) was 0.0020, the DR8w2 binding data (DRB1*0802 (DR8w2)) was 0.0010 and the DR9 binding data (DRB1*0901 (DR9)) was -0.0003. The DR5w11 binding data (DRB1*1101 (DR5w11)) was 0.0011, the DR5w12 binding data (DRB1*1201 (DR5w12)) was 0.0006 and the DR6w19 binding data (DRB1*1302 (DR6w19)) was 0.0003. The DR2w2β1 binding data (DRB1*1501 (DR2w2β1)) was 0.0040 and the DR2w2β2 binding data (DRB5*0101 (DR2w2β2)) was 0.0044.

With HPSDGKCNLY the “A*0101 (binding information)” value (HLA-A*0101) was 0.0260 and the “B*0702 (binding information)” value (HLA-B*0702) was 0.0001.

With LPSENERGY the “A*0101 (binding information)” value (HLA-A*0101) was 0.6700, the “B*0702 (binding information)” value (HLA-B*0702) was 0,0001 and the DR3 binding information (DRB1*0301 (DR3); DR3a motif peptides, unit not given, exemplary 15-mer containing the core sequence) was -0.0033.

In the case of PSDGKCNLY, the “A*010I” value (HLA-A*0101) is reported as 0.5400, the “A*0101 (binding information)” value (HLA-A*0101) is reported as 0.5400 and the “A*0301 (binding information)” value (HLA-A*0301) is reported as 0.0002. For the same substance, the “A*1101 binding information” value (HLA-A*1101; Table XVII, malaria A11 motif peptides, binding value unit not given) was 0.0002.

For aKXVWANTLKAAa, the “Stimulation of T helper lymphocyte response” value (T helper lymphocytes) is given as “stimulate the response of T helper lymphocytes from most individuals”.
